{
  "source": "paper PMC6155027",
  "about": "“Mechanistic insights into the host-microbe interaction and pathogen exclusion mediated by the Mucus-binding protein of Lactobacillus plantarum” (Scientific Reports, 2018)",
  "biological_target": "T1, Mubs5s6 (Lactiplantibacillus plantarum, UniProt F9UP14)",
  "T1 construct": "gene lp_1643; last two (fifth and sixth) C-terminal Mub domains with spacers of the about 2200-residue Lp_1643 protein; 366 residues, about 40 kDa; expressed in E. coli as MBP fusion (82 kDa), MBP tag removable with Factor Xa",
  "T1 sequence (F9UP14 entry or part of it)": "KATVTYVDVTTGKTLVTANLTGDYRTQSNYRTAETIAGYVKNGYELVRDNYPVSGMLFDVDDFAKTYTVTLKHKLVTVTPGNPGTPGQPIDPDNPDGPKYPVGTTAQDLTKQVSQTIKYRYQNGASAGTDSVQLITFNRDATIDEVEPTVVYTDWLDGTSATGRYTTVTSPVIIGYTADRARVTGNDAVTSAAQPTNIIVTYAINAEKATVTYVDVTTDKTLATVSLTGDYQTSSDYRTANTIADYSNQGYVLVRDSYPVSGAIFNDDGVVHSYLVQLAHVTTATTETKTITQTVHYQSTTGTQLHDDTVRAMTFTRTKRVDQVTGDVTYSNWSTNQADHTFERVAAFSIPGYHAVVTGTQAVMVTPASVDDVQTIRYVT",
  "assay": "biochemical assay (details in supplement)",
  "format": "binding",
  "settings": "site predicted by COACH (Asn42, Gly43, Asn224, Thr227, Asn228, Gln229); assay conditions only in supplement",
  "data": [
    {"smiles": "OC[C@H]1OC(O)[C@H](O)[C@@H](O)[C@@H]1O", "note": "(stereo partly shown) [glucose]", "values": [
      {"measurement": "biochemical assay (details in supplement)", "result": "We could also confirm the binding of calcium and glucose by Atomic Absorption Spectroscopy and biochemical assay"}
    ]}
  ]
}
